Patent US20260078119A1, “DEGRADER COMPOUNDS AND USES THEREOF” (Bristol-Myers Squibb Company, priority 2024, published 2026)
pEC50: −log10 of the molar value. Where two headings read alike, the source gives them in different places.

What was measured:
[1] = molecular target: T1, FAK (Homo sapiens, UniProt Q05397); assay: FAK-HiBiT Degradation Assay; type: cell-based; settings: for DC50: read-out: FAK HiBiT EC50; for FAK HiBiT Ymin: lower limit of the four parameter fit (value A), Ymax derived using DMSO control, JHH-4-FAK-HiBiT cells, two hours
T1 construct: homozygous knock-in of a HiBiT tag (Promega Corporation, Madison, WI) to the C-terminus of the FAK gene in its natural genomic locus; endogenous in cells; host or cells: JHH-4-FAK-HiBiT clone d01 (CRISPR-Cas9 knock-in at the endogenous locus)
Method in brief: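 Degradation read out by HiBiT lytic luminescence after 2 h compound exposure (top concentration 1 μM, 3-fold, 10 points) in JHH-4 clone d01 bearing endogenous FAK-HiBiT knock-in. Four-parameter logistic fit gave EC50 and Ymin; DMSO wells defined Ymax.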

[2] = tested on: CAL-51 cells; assay: CAL-51 Cell Proliferation Assay; type: cell-based; settings: for pEC50: 120 hours incubation, 10-point dose response, 4-fold dilutions starting at 10 μM, Cell-Titer-Glo, read-out: CAL-51 Prolif EC50; for CAL-51 Prolif Ymin: minimal percent of DMSO control observed in the concentrations tested (Ymin-obs), 120 hours
Excerpt: CAL-51 cells were obtained from Bristol Myers Squibb internal cell banks (originally sourced from DSMZ-German Collection of Microorganisms and Cell Cultures GmbH, Germany) and cultured in RPMI complete media (RPMI-1640, 10% Fetal Bovine serum, 1× Antibiotic-Antimycotic, and 1× Non-Essential Amino Acids). Compounds were dispensed into 384-well plates using an acoustic dispenser (Beckman Coulter Life Sciences, Carlsbad, CA) in duplicate with 14 compounds on each plate. For each compound, a 10-point dose response was printed at 4-fold dilutions starting at 10 μM. The DMSO concentration was kept constant for a final assay concentration of 0.1% per well assuming 50 uL final media volume. Compound plates were sealed and frozen at −20° C. until use.
For each assay batch, compound plates were thawed and allowed to reach room temperature, and cells were seeded at 350 cells per well in 50 μl complete RPMI media. After 120 hours of incubation at 37° C. and 5% CO2, cells were lysed by addition of 25 μL of Cell-Titer-Glo Reagent (Promega Corporation, Madison, WI), as per manufacturer's instructions, protected from light, shaken for 20 minutes, and total luminescence read by a CLARIOstar Plus plate reader (BMG LabTech, Cary, NC). Total luminescence signal is linearly correlated with cell number remaining in the well.
Luminescence data was processed per plate by subtracting reagent-only “blank” well luminescence from all measured values and calculating a percent of DMSO control value for each treatment well. Then, to determine the half-maximal effective concentration (EC50) values for cell growth inhibition, a four parameter logistic model was fit to the data for each DMSO-normalized compound: Sigmoidal Dose-Response Model: (FIT=(A+((B−A)/1+((C/x)^D)))) where C is the inflection point (EC50), D is the Hill slope, and A and B are the low and high limits of the fit respectively. The lower limit of the fit (value A) is referred to as Ymin-calculated. The minimal percent of DMSO control that is observed in the concentrations tested for each compound is labeled as “Ymin-obs”, and was recorded and reported in the tables. Sigmoidal fit curves were processed and evaluated using Dotmatics Atlas (Insightful Science, LLC, Boston, MA).

[3] = JHH-4-FAK-HiBiT clone d01 cells, two hours incubation, 10-point dose response, 3-fold dilution starting at 1 μM, Nano-Glo HiBiT luminescence

T1 sequence (Q05397 whole entry): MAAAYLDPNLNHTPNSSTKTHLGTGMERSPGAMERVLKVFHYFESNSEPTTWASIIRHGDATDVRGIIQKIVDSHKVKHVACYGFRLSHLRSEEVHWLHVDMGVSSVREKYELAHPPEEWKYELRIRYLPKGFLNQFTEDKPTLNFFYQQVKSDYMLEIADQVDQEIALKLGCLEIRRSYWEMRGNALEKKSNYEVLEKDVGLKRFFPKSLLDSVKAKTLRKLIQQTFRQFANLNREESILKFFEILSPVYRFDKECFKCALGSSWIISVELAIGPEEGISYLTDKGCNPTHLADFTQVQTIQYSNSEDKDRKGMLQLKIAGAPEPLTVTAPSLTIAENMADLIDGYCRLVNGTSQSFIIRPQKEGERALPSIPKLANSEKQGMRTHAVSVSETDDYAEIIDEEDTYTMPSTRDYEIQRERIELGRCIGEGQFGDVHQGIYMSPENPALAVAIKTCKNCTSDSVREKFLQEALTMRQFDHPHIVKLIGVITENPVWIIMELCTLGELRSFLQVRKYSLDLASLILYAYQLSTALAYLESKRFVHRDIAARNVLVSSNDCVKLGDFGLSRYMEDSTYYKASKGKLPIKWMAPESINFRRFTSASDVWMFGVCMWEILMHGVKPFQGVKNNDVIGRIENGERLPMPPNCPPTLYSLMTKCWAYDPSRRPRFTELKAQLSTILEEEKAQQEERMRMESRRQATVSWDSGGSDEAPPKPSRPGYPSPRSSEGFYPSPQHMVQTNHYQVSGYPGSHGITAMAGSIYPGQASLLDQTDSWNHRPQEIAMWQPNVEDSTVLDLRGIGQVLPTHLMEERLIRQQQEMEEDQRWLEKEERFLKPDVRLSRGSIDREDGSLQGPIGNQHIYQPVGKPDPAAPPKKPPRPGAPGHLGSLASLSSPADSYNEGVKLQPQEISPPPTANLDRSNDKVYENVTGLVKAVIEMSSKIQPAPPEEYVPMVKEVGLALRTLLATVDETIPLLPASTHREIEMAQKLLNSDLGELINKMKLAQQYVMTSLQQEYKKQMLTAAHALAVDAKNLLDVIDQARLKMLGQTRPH

DC50 [1, 3]	FAK HiBiT Ymin [1]	pEC50 [1, 3]	Compound	pEC50 ([2]; Homo sapiens)	CAL-51 Prolif Ymin [2]	pEC50 [2]
19.9 nM	22.15		O=C1CC[C@H](N2Cc3cc(Cn4ncc5c(-c6ccc(F)cc6F)cc(N6CC[C@H](O)C6)nc54)ccc3C2=O)C(=O)N1 [Example 95, (3S)-3-(5-{[4-(2,4-difluorophenyl)-6-[(3S)-3-hydroxypyrrolidin-1-yl]-1H-pyrazolo[3,4-b]pyridin-1-yl]methyl}-1-oxo-2,3-dihydro-1H-isoindol-2-yl)piperidine-2,6-dione]	7.87	46.68	
14.1 nM	8.03		Cc1cc(C#N)cnc1-c1cc(N2CC(F)C2)nc2c1cnn2Cc1ccc2c(c1)CN(C1CCC(=O)NC1=O)C2=O (centres unmarked) [Example 91, 6-(1-{[2-(2,6-dioxopiperidin-3-yl)-1-oxo-2,3-dihydro-1H-isoindol-5-yl]methyl}-6-(3-fluoroazetidin-1-yl)-1H-pyrazolo[3,4-b]pyridin-4-yl)-5-methylpyridine-3-carbonitrile]	8.11	24.52	
≥ 1000 nM	87.67		COc1cc(C2CC2)cnc1-c1cc(N2CC(F)C2)nc2c1cnn2Cc1ccc2c(c1)CN(C1CCC(=O)NC1=O)C2=O (centres unmarked) [Example 135, 3-(5-{[4-(5-cyclopropyl-3-methoxypyridin-2-yl)-6-(3-fluoroazetidin-1-yl)-1H-pyrazolo[3,4-b]pyridin-1-yl]methyl}-1-oxo-2,3-dihydro-1H-isoindol-2-yl)piperidine-2,6-dione]	≤ 5.00	84.14	
2.23 nM	5.82		Cc1cc(Cl)cnc1-c1cc(N2CC(F)C2)nc2c1cnn2Cc1ccc2c(c1)CN([C@H]1CCC(=O)NC1=O)C2=O [Example 50, (3S)-3-(5-{[4-(5-chloro-3-methylpyridin-2-yl)-6-(3-fluoroazetidin-1-yl)-1H-pyrazolo[3,4-b]pyridin-1-yl]methyl}-1-oxo-2,3-dihydro-1H-isoindol-2-yl)piperidine-2,6-dione]	8.67	27.72	
1.76 nM	6.88		CC(C)Nc1cc(-c2ncc(C(F)(F)F)cc2Cl)c2cnn(Cc3ccc4c(c3)CN([C@H]3CCC(=O)NC3=O)C4=O)c2n1 [Example 45, (3S)-3-[5-({4-[3-chloro-5-(trifluoromethyl)pyridin-2-yl]-6-[(propan-2-yl)amino]-1H-pyrazolo[3,4-b]pyridin-1-yl}methyl)-1-oxo-2,3-dihydro-1H-isoindol-2-yl]piperidine-2,6-dione]	9.12	30.48	
13.6 nM	15.97		O=C1CCC(N2Cc3cc(Cn4ncc5c(-c6ncc(Cl)cc6F)cc(N6CC(F)C6)nc54)ccc3C2=O)C(=O)N1 (centres unmarked) [Example 90, 3-(5-{[4-(5-chloro-3-fluoropyridin-2-yl)-6-(3-fluoroazetidin-1-yl)-1H-pyrazolo[3,4-b]pyridin-1-yl]methyl}-1-oxo-2,3-dihydro-1H-isoindol-2-yl)piperidine-2,6-dione]	7.98	37.96	
0.29 nM	8.97		O=C1CCC(N2Cc3cc(Cn4ncc5c(-c6ncc(C(F)(F)F)cc6Cl)c(F)c(N6CC(F)C6)nc54)ccc3C2=O)C(=O)N1 (centres unmarked) [Example 3, 3-[5-({4-[3-chloro-5-(trifluoromethyl)pyridin-2-yl]-5-fluoro-6-(3-fluoroazetidin-1-yl)-1H-pyrazolo[3,4-b]pyridin-1-yl}methyl)-1-oxo-2,3-dihydro-1H-isoindol-2-yl]piperidine-2,6-dione]	8.85	23.98	
26.8 nM	9.53		O=C1CCC(N2Cc3cc(Cn4ncc5c(-c6ncc(F)cc6Cl)cc(N6CC[C@H](O)C6)nc54)ccc3C2=O)C(=O)N1 (stereo partly drawn) [Example 100, 3-(5-{[4-(3-chloro-5-fluoropyridin-2-yl)-6-[(3S)-3-hydroxypyrrolidin-1-yl]-1H-pyrazolo[3,4-b]pyridin-1-yl]methyl}-1-oxo-2,3-dihydro-1H-isoindol-2-yl)piperidine-2,6-dione]	7.87	29.27	
18.3 nM	23.92		CN(c1cc(-c2ncc(C(F)(F)F)cc2Cl)c2cnn(Cc3ccc4c(c3)CN(C3CCC(=O)NC3=O)C4=O)c2n1)C1CCOCC1 (centres unmarked) [Example 94, 3-[5-({4-[3-chloro-5-(trifluoromethyl)pyridin-2-yl]-6-[methyl(oxan-4-yl)amino]-1H-pyrazolo[3,4-b]pyridin-1-yl}methyl)-1-oxo-2,3-dihydro-1H-isoindol-2-yl]piperidine-2,6-dione]	8.26	47.74	
3.13 nM	20.64		O=C1CCC(N2Cc3cc(Cn4ncc5c(-c6ncc(C(F)(F)F)cc6F)cc(N6CC(F)C6)nc54)ccc3C2=O)C(=O)N1 (centres unmarked) [Example 55, 3-[5-({4-[3-fluoro-5-(trifluoromethyl)pyridin-2-yl]-6-(3-fluoroazetidin-1-yl)-1H-pyrazolo[3,4-b]pyridin-1-yl}methyl)-1-oxo-2,3-dihydro-1H-isoindol-2-yl]piperidine-2,6-dione]	8.50	36.41	
	7.20	7.84	CN(C)c1cc(-c2ncc(C#N)cc2Cl)c2c(n1)N(Cc1ccc3c(c1)CN(C1CCC(=O)NC1=O)C3=O)CC2 (centres unmarked) [Example 14, 5-chloro-6-(6-(dimethylamino)-1-((2-(2,6-dioxopiperidin-3-yl)-1-oxoisoindolin-5-yl)methyl)-2,3-dihydro-1H-pyrrolo[2,3-b]pyridin-4-yl)nicotinonitrile]		23.56	8.30
13.1 nM	22.43		O=C1CC[C@H](N2Cc3cc(Cn4ncc5c(-c6ncc(C(F)(F)F)cc6Cl)cc(NCCF)nc54)ccc3C2=O)C(=O)N1 [Example 146, (S)-3-(5-((4-(3-chloro-5-(trifluoromethyl)pyridin-2-yl)-6-((2-fluoroethyl)amino)-1H-pyrazolo[3,4-b]pyridin-1-yl)methyl)-1-oxoisoindolin-2-yl)piperidine-2,6-dione]	8.03	57.23	
10.2 nM	10.27		CN(c1cc(-c2ncc(C(F)(F)F)cc2Cl)c2cnn(Cc3ccc4c(c3)CN([C@H]3CCC(=O)NC3=O)C4=O)c2n1)C1CC(C)(O)C1 (stereo partly drawn) [Example 83, (3S)-3-[5-({4-[3-chloro-5-(trifluoromethyl)pyridin-2-yl]-6-{methyl[(1r,3s)-3-hydroxy-3-methylcyclobutyl]amino}-1H-pyrazolo[3,4-b]pyridin-1-yl}methyl)-1-oxo-2,3-dihydro-1H-isoindol-2-yl]piperidine-2,6-dione]	8.27	30.14	
6.62 nM	11.02		N#Cc1cnc(-c2cc(N3CC(F)C3)nc3c2cnn3Cc2ccc3c(c2)CN(C2CCC(=O)NC2=O)C3=O)c(Cl)c1 (centres unmarked) [Example 73, 5-chloro-6-(1-{[2-(2,6-dioxopiperidin-3-yl)-1-oxo-2,3-dihydro-1H-isoindol-5-yl]methyl}-6-(3-fluoroazetidin-1-yl)-1H-pyrazolo[3,4-b]pyridin-4-yl)pyridine-3-carbonitrile]	8.47	23.58	
